# Results from ChEMBL document CHEMBL1155491, “Acylurea connected straight chain hydroxamates as novel histone deacetylase inhibitors: Synthesis, SAR, and in vivo antitumor activity” (Bioorg Med Chem Lett, 2010).
# The source made the active and inactive calls. No cut-off for these calls is given here.
# Experiments:
# [1] = Thermodynamic solubility at pH 7.4; format: physicochemical; conditions: buffer, read-out: Therm_solubility
# [2] = molecular target: Histone deacetylase 2 (Homo sapiens, UniProt Q92769)
# [3] = test system: A2780; test: Antiproliferative activity against human A2780 cells; format: functional, cell-based
# [4] = Toxicity in human PC3 cells xenografted nude mouse; format: organism-based, PC-3; conditions: in vivo
# [5] = Volume of distribution at steady state in mouse at 10 mg/kg, iv; format: ADME, organism-based; design: dose 10 mg/kg, route intravenous; conditions: in vivo, read-out: Vdss
# [6] = molecular target: T1, Polyamine deacetylase HDAC10 (Homo sapiens, UniProt Q969S8); test: Inhibition of HDAC10
# T1 sequence (Q969S8 whole entry): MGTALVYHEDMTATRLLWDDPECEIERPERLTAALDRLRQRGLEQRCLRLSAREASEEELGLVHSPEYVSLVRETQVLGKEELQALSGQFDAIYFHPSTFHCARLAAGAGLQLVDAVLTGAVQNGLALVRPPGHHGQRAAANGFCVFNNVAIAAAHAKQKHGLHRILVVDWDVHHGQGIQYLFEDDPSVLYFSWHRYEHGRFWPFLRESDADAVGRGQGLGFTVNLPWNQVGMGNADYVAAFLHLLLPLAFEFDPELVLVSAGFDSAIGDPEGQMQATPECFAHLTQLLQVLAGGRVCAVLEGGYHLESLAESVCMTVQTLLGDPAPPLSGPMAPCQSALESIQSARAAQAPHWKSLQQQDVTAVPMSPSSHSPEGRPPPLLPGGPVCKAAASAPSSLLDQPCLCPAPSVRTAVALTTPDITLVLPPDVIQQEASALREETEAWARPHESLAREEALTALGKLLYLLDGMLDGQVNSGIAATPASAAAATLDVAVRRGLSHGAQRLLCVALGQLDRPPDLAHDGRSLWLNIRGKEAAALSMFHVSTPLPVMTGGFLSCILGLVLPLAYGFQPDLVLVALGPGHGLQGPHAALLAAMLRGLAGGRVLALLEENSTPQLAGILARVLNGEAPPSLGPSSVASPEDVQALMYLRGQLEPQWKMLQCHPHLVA
# [7] = Clearance in mouse at 10 mg/kg, iv; format: ADME, organism-based; design: dose 10 mg/kg, route intravenous; conditions: in vivo
# [8] = test system: PC-3; test: Antiproliferative activity against human PC3 cells; format: functional, cell-based
# [9] = molecular target: Histone deacetylase 9 (Homo sapiens, UniProt Q9UKV0); test: Inhibition of HDAC9
# [10] = Apparent permeability from apical to basolateral side of Caco-2 cells; format: ADME, cell-based; conditions: human
# [11] = Half life in human liver microsome; format: ADME; conditions: liver microsomes
# [12] = molecular target: T2, Protein deacetylase HDAC6 (Homo sapiens, UniProt Q9UBN7); test: Inhibition of HDAC6
# T2 sequence (Q9UBN7 whole entry): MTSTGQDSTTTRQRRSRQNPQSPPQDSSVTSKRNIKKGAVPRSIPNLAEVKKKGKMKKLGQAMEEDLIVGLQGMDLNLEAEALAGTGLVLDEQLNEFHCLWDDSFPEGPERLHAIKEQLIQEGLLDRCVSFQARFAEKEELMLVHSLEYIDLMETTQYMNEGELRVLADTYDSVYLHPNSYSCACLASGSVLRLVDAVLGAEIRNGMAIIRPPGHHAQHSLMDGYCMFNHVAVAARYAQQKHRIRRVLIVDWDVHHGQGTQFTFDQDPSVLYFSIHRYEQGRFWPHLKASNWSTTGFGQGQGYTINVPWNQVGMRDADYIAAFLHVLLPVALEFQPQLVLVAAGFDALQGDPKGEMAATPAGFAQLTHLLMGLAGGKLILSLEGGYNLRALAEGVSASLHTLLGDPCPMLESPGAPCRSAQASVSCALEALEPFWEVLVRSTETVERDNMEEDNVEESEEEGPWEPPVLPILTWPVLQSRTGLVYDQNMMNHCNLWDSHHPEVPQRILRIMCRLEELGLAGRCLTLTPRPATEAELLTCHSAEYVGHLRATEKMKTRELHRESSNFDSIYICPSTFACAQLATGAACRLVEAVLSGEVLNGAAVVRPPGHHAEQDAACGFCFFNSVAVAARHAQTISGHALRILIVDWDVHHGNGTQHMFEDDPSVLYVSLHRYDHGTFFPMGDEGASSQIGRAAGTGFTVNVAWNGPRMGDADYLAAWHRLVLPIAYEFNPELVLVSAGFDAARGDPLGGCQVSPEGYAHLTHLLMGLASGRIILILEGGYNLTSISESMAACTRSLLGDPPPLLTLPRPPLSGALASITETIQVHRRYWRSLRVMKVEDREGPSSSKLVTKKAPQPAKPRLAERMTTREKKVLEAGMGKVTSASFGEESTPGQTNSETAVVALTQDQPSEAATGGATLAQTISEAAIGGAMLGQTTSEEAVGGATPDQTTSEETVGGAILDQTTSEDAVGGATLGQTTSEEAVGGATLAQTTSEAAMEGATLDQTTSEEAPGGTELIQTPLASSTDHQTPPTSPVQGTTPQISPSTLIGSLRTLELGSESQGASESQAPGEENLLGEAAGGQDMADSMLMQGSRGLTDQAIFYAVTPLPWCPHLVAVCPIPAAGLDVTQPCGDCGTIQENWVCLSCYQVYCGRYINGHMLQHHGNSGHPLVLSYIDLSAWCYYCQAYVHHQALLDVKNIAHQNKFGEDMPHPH
# [13] = test system: NCI-H522; test: Antiproliferative activity against human NCI-H522 cells; format: functional, cell-based
# [14] = Solubility at pH 7; format: physicochemical; conditions: buffer
# [15] = test system: PC-3; test: animal or person; format: functional, Homo sapiens; conditions: Mus musculus, PC-3, ip, route intraperitoneal, read-out: TGI
# [16] = molecular target: T3, Histone deacetylase 1 (Homo sapiens, UniProt Q13547)
# [17] = molecular target: Histone deacetylase 3 (Homo sapiens, UniProt O15379); test: Inhibition of HDAC3
# [18] = molecular target: Histone deacetylase 5 (Homo sapiens, UniProt Q9UQL6); test: Inhibition of HDAC5
# [19] = Octanol-water distribution coefficient, log D of the compound; format: physicochemical
# [20] = molecular target: T3, Histone deacetylase 1; test: Inhibition of HDAC1 in human COLO205 cells assessed as induction of histone H3 acetylation at 10 uM by Western-immuno blotting; format: cell-based; conditions: COLO 205
# [21] = Elimination half life in mouse at 10 mg/kg, iv; format: ADME, organism-based; design: dose 10 mg/kg, route intravenous; conditions: in vivo, read-out: beta t1/2 (converted)
# [22] = test system: Ramos; test: Antiproliferative activity against human Ramos cells; format: functional, cell-based
# [23] = molecular target: T3, Histone deacetylase 1; remark: listed apart in the source
# [24] = test system: HCT-116; test: Antitumor activity against human HCT116 cells xenografted in BALB/c mouse at 100 mg/kg, po after 21 days; format: functional; conditions: HCT-116, 504 h, read-out: TGI
# [25] = Half life in mouse liver microsome; format: ADME; conditions: liver microsomes
# [26] = Oral bioavailability in mouse at 50 mg/kg, po; conditions: in vivo
# T3 sequence (Q13547 whole entry): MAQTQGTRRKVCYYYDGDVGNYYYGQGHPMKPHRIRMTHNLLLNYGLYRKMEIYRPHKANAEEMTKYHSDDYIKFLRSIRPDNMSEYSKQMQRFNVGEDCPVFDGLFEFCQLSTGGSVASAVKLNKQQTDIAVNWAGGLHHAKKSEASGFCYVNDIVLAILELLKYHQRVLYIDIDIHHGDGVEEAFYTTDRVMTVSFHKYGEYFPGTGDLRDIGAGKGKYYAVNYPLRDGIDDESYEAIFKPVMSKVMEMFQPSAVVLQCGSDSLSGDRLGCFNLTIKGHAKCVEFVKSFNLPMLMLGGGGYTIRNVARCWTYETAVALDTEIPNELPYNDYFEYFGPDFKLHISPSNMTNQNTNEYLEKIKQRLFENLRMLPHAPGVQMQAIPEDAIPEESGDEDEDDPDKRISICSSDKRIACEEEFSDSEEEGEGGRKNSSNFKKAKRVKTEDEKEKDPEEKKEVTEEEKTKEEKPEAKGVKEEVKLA
# Sequence of Histone deacetylase 5 (Q9UQL6 whole entry): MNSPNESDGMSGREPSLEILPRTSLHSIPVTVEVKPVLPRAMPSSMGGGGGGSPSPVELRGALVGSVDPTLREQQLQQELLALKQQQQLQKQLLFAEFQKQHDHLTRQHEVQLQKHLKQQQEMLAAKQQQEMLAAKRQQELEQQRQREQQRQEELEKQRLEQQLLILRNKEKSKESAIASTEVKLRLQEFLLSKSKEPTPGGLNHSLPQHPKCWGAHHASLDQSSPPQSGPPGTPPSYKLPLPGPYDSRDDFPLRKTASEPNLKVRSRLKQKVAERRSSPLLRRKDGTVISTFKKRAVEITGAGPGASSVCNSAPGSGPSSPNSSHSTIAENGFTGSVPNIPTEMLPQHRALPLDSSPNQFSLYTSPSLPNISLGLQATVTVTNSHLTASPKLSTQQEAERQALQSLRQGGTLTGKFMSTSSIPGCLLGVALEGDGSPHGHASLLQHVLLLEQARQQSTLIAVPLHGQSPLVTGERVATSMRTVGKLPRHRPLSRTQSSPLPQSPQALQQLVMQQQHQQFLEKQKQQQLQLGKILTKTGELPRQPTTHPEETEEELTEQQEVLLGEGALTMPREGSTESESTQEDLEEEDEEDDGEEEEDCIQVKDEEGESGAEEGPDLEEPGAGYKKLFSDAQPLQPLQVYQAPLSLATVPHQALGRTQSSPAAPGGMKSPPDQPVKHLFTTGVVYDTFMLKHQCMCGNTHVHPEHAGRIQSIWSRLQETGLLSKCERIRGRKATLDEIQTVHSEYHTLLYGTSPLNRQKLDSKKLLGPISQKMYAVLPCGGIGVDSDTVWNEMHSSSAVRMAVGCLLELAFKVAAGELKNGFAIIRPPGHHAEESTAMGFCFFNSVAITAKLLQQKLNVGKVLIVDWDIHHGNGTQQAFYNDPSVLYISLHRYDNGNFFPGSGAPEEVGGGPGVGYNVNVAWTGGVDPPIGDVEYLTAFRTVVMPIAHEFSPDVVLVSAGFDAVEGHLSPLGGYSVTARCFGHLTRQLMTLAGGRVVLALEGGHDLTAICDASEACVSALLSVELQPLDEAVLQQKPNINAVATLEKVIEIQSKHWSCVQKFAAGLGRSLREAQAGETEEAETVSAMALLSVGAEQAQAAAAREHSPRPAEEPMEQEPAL
# Sequence of Histone deacetylase 9 (Q9UKV0 whole entry): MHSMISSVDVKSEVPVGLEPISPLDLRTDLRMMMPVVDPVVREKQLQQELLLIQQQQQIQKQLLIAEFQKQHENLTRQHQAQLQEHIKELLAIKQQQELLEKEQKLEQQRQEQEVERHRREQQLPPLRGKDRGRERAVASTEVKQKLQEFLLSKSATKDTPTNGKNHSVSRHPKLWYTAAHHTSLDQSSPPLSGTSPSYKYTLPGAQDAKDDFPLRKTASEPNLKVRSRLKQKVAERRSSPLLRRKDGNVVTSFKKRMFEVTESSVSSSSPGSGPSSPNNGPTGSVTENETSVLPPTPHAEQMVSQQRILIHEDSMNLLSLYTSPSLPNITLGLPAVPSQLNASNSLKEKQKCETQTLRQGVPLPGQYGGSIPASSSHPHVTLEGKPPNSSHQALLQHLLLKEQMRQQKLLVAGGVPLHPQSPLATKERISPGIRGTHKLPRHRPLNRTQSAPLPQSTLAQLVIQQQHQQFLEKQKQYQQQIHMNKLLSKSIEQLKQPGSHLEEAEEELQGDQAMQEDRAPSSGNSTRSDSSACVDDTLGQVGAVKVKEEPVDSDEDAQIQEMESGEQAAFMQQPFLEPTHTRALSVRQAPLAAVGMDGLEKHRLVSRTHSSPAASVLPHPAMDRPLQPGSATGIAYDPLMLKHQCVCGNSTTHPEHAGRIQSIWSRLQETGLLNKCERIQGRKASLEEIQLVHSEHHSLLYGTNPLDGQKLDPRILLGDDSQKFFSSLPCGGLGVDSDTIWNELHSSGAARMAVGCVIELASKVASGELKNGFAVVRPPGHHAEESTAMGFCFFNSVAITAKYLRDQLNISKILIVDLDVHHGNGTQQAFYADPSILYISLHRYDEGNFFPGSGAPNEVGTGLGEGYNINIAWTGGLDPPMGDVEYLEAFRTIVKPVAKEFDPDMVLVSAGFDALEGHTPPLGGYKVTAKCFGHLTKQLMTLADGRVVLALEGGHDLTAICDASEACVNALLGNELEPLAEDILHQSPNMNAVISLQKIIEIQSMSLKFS
# Sequence of Histone deacetylase 2 (Q92769 whole entry): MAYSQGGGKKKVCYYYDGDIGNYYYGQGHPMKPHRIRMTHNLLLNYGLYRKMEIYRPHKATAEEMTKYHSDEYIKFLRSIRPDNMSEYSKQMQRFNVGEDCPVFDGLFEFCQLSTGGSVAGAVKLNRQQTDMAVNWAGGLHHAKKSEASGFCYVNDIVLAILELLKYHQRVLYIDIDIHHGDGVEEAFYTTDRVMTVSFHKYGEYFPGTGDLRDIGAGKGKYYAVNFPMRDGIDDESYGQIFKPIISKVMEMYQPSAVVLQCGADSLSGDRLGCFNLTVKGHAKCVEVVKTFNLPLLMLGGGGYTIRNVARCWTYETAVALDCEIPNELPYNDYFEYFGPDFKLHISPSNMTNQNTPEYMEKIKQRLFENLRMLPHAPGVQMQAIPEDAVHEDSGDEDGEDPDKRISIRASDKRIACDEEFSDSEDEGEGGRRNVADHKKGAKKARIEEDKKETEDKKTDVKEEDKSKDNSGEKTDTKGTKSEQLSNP
# Sequence of Histone deacetylase 3 (O15379 whole entry): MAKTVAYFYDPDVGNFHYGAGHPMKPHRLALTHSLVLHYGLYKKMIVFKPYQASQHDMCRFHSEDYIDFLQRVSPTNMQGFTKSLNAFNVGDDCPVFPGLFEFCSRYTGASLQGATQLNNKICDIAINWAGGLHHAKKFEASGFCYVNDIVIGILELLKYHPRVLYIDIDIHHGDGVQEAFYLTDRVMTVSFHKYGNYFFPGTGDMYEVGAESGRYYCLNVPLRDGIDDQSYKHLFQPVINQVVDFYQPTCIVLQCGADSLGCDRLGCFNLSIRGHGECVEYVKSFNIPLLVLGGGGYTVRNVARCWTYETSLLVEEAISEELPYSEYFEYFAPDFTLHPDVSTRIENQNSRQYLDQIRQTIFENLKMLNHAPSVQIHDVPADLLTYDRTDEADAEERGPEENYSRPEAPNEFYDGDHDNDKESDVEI
smiles,measurement,setting,value
O=C(CCCCCNC(=O)NC(=O)c1ccccc1)NO,solubility thermodynamic,[1],526 µg/mL
same,Ki,[2],44 nM
same,IC50,[3],700 nM
same,MTD,[4],200 mg/kg
same,Vd,[5],2.16 L/kg
same,Ki,[6],40 nM
same,clearance,[7],83.8 mL/min/kg
same,IC50,[8],740 nM
same,Ki,[9],55 nM
same,Papp A→B,[10],3.12 ×10⁻⁶ cm/s
same,half-life,[11],> 1 h
same,Ki,[12],7 nM
same,IC50,[13],500 nM
same,solubility,[14],177 µM
same,inhibition in vivo at 160 mg/kg,[15],57%
same,IC50,[16],53 nM
same,Ki,[16],16 nM
same,Ki,[17],23 nM
same,Ki,[18],46 nM
same,logD,[19],0.75
same,Activity,[20],Active
same,half-life,[21],1.54 h
same,IC50,[22],460 nM
same,IC50,[23],2210 nM
same,inhibition in vivo at 100 mg/kg,[24],80%
same,half-life,[25],> 0.5 h
same,bioavailability,[26],62%
